Experiments:
E. coli [1] = test: Selective inhibitory concentration of lignocellulosic compounds in LB-agar; format: cell-based, Escherichia coli; conditions: 48 hours of growth at 37° C., lowest concentration tested which prevented colony formation
Description: The inhibitory concentrations of 14 lignocellulosic compounds in LB-agar (Table 2) were determined for two versions of the E. coli strain used to create the mgDNA libraries—a strain with a control pCC1FOS fosmid insert containing E. coli genomic DNA, and an untransformed strain. […] A range of concentrations for each lignocellulosic compound were tested, based on inhibitory concentrations for E. coli previously reported (1-3).

[2] = test system: oral and gut human-associated microbiome isolates; test: Antibiotic resistance profiling of human-associated microbiome isolates; format: cell-based, bacteria isolated from human sputum and fecal samples; conditions: for Microbiome isolates resistant, on average: 1102 oral and gut isolates, antibiotic 20 mg/L in LB
Description: Three sputum samples (oral microbiomes) and two fecal samples (gut microbiomes) were collected from three healthy volunteers at three different sampling times (day 1, 140 and 141), and fresh samples were plated on Luria broth (LB) agar. […]. Cultures were incubated for 16 hours at 37° C. and growth was assayed by absorption at 600 nm.

E. coli [3] = test: Kinetic growth / biomass yield analysis in liquid LB-chlor with inhibitor; format: cell-based, Escherichia coli; conditions: for Improvement in biomass yield due to selected metagenomic insert: vs E. coli control, at the inhibitor concentration giving 90% reduction of wild type biomass yield, mgFurAc/2-furoic acid, mgSyrAld/syringaldehyde, mgMetCat/4-methylcatechol; for Inhibitor concentration resulting in 90% reduction in growth yield: wild-type/control E. coli, 24 hours of growth at 37° C.
Description: […] DNA library clones conferring tolerance to each of three inhibitors were chosen for further analysis of encoded functional parts from the selected inhibitor plates. For 4-methycatechol, 5 tolerant clones each were chosen from selected mgDNA libraries 1, 3, 4, and 5 (FIG. 2A). For 2-furoic acid, 6-7 tolerant clones each were chosen from selected mgDNA libraries 1, 3 and 4 (FIG. 2A). For syringaldehyde, 10 tolerant clones each were chosen from selected mgDNA libraries 4 and 5 (FIG. 2A). Each colony was grown to saturation (16-18 hours) at 37° C. with shaking in liquid LB medium containing 12.5 μg/mL-chloramphenicol (hereon referred to as LB-chlor). Saturated cultures were diluted 1:40 in fresh LB-chlor and grown to mid-log phase (1-2 hours) at 37° C. with shaking. Log-phase cultures were inoculated (1:40) into LB-chlor containing one of three concentrations of the relevant inhibitor (4-methylcatechol: 0.2, 0.6 and 1 g/L; 2-furoic acid: 0.8, 7.9, 15 g/L; syringaldehyde: 1.55, 1.775 and 2 g/L), with concentrations chosen to sparsely span the range of previously reported inhibitory concentrations of these compounds (J. Zaldivar, L. O. Ingram, Biotechnol Bioeng 66, 203 (1999); J. Zaldivar, A. Martinez, L. O. Ingram, Biotechnol Bioeng 65, 24 (Oct. 5, 1999); J. Zaldivar, A. Martinez, L. O. Ingram, Biotechnol Bioeng 68, 524 (Jun. 5, 2000)). Biomass yield after 24 hours of growth at 37° C. with shaking was determined by end-point turbidity measurements at 600 nm using a Versamax microplate reader (Molecular Devices).
Three mgDNA clones per inhibitor with the highest biomass differential when compared to the E. coli control were chosen for kinetic growth analysis. Growth kinetics were measured at 11 concentrations per inhibitor, evenly spanning the following concentration ranges: 0-1 g/L 4-methylcatechol, 0-1.5 g/L 2-furoic acid, and 0-3 g/L syringaldehyde. Kinetic measurements were done in triplicate for each mgDNA clone and E. coli control by 600 nm measurements every 5 minutes over 24 hours at 37° C. with shaking in a Versamax microplate reader.
To determine whether the observed tolerance in the selected clones was a result of functional parts encoded by mgDNA, fosmids from the 3 kinetically characterized mgDNA clones per inhibitor were extracted using the FosmidMAX DNA Purification Kit (catalog #FMAX046, Epicentre Biotechnologies). Purified fosmids were then retransformed into an electro-competent version of the same control E. coli strain using a standard electroporation protocol. 3 transformant colonies for each of the 3 kinetically characterized mgDNA clones per inhibitor were chosen for a repeat of the inhibitor tolerance kinetic growth analysis (see above). All of the retransformed fosmids for 4-methylcatechol and 2-furoic acid and 2 of the 3 retransformed fosmids for syringaldehyde recapitulated the improved inhibitor tolerance compared to the E. coli control seen for the original mgDNA selected clones. […] Kinetic growth plots for the mgDNA clone with the best improvements in biomass yield at these concentrations per inhibitor are shown in FIG. 4, over a range of inhibitor concentrations. These selected clones were from mgDNA library 3 for 2-furoic acid (mgFurAc), library 4 for syringaldehyde (mgSyrAld), and library 3 for 4-methylcatechol (mgMetCat).

Compound	Inhibitory Concentration (E. coli [1]) [g/L]	also measured
O=C(O)c1ccc(O)cc1 [4-hydrobenzoic acid]	7.90	–
O=Cc1ccco1 [Furfural]	2.95	–
COc1cc(C=O)ccc1O [Vanillin]	1.50	–
O=C(O)c1cn(C2CC2)c2cc(N3CCNCC3)c(F)cc2c1=O [ciprofloxacin]	–	Microbiome isolates resistant, on average [2]: 26%
COc1cc(C(=O)O)cc(OC)c1O [Syringic acid]	9.55	–
O=C(O)c1ccco1 [2-Furoic acid]	0.80	Improvement in biomass yield due to selected metagenomic insert (E. coli [3]): 6.9 fold; Inhibitor concentration resulting in 90% reduction in growth yield (E. coli [3]): 1.05 g/L
CC(=O)O [Acetic Acid]	5.00	–
C[C@H]1COc2c(N3CCN(C)CC3)c(F)cc3c(=O)c(C(=O)O)cn1c23 [levofloxacin]	–	Microbiome isolates resistant, on average [2]: 22%
O=CO [Formic acid]	1.15	–
COc1cc(C=O)cc(OC)c1O [Syringaldehyde]	1.55	Improvement in biomass yield due to selected metagenomic insert (E. coli [3]): 5.7 fold; Inhibitor concentration resulting in 90% reduction in growth yield (E. coli [3]): 1.33 g/L
CC(=O)CCC(=O)O [Levulinic acid]	3.00	–
CCO [Ethanol]	55.00	–
CC1(C)S[C@@H]2[C@H](NC(=O)C(C(=O)O)c3ccccc3)C(=O)N2[C@H]1C(=O)O (some centres unmarked) [carbenicillin]	–	Microbiome isolates resistant, on average [2]: 39%
Cc1ccc(O)c(O)c1 [Methylcatechol, 4-methylcatechol]	0.20	Improvement in biomass yield due to selected metagenomic insert (E. coli [3]): 6.0 fold; Inhibitor concentration resulting in 90% reduction in growth yield (E. coli [3]): 0.33 g/L
O=Cc1ccc(O)cc1 [4-hydroxy-benzaldhehyde]	1.25	–
Oc1ccc(O)cc1 [Hydroquinone]	1.85	–
O=C(N[C@H](CO)[C@H](O)c1ccc([N+](=O)[O-])cc1)C(Cl)Cl [chloramphenicol]	–	Microbiome isolates resistant, on average [2]: 7%; Susceptibility of gut microbiome isolates ([2]; gut isolates from all sampling times, 20 mg/L): almost completely susceptible; O3 day 1 isolates resistant ([2]; oral microbiome O3, day 1, 20 mg/L): 87%
COc1cc(C(=O)O)ccc1O [Vanillic acid]	8.08	–
